Read-outs that look alike come from different tables or passages of the source.
Tests used:
human NSCLC PDX LXFA-737 = system: human NSCLC PDX LXFA-737
Protocol: Animals: Female NMRI nu/nu mice (Crl:NMRI-Foxn1nu), 4 to 6 weeks of age.
Experimental procedure: Animals were monitored until the tumor implants reached the study volume criteria of 50-250 mm^3 (e.g., 80-200 mm^3) in a sufficient number of animals. […] The day of randomization was designated as day 0.
Tumors were measured and mice were weighed twice a week during the experimental period. The first day of dosing was day 1, one day after randomization (day 0).
Statistical analysis: Inhibition of Tumor Growth, Test/Control Value in % (Min. T/C): The test versus control value (T/C in %) was calculated from the ratio of the median residual tumor volume (RTV) values of test versus control groups on day X multiplied by 100. Tumor volume doubling and quadrupling time (Td, Tq) for test and control groups was defined as the time interval (in days) required for a group to reach a median RTV of 200% or 400%.

MSLN-negative cell lines = experiment: In vitro cytotoxicity (IC50, Crystal Violet) on MSLN-negative cell lines (Example 11); assay type: cell-based; conditions: for IC50: Homo sapiens, read-out: In vitro cell based potency, IC50
Protocol: Plates were incubated at 37° C. 5% CO2 for an additional 5 days. […] Plates were read at 570 nm.

human NSCLC PDX LC-F-25 = experiment: Human NSCLC PDX model LC-F-25; assay type: in vivo, mouse
Protocol: Statistical analysis: Statistical analysis was performed for each measurement by a Mann-Whitney non-parametric comparison test. Each treated group was compared with the control group.

[1] = system: A3 (A431 stably transfected with human mesothelin) cells; experiment: In vitro cytotoxicity analysis (Crystal Violet), A3; assay type: cell-based
Protocol: Plates were read at 570 nm. Data was analyzed using GraphPad Prism 6.
Fifteen anti-mesothelin antibodies were sub-cloned, scale-up expressed and purified, and conjugated using maleimide-VCP-eribulin as payload at the Cys80 position. All ADCs were purified and characterized using SEC-HPLC for aggregation analysis, HIC-HPLC for DAR analysis, and cell-based assay with A431-A3 (MSLN^hi), A431 (MSLN^lo), and OVCAR3 (MSLN^hi) cell lines. […] Based on the characterization data below, six antibodies (bolded) were selected for humanization.

[2] = eribulin single dose of 3.2 mg/kg i.v.
[3] = eribulin single dose of 0.1 mg/kg i.v.

## C=C1C[C@@H]2CC[C@@]34C[C@H]5O[C@H]6[C@@H](O3)[C@H]3O[C@H](CC[C@@H]3O[C@H]6[C@H]5O4)CC(=O)C[C@@H]3[C@@H](OC)[C@@H](C[C@H](O)CN)O[C@H]3C[C@H]3O[C@@H](CC[C@@H]1O2)C[C@@H](C)C3=C [Eribulin, eribulin, reference compound]
Human NSCLC PDX LXFA-737; eribulin single dose of 0.2 mg/kg, on day 44
  minimum T/C: 51.1%
Human NSCLC PDX LXFA-737; [2]
  Tq (tumor volume quadrupling time): 80.1%
Human NSCLC PDX LXFA-737; eribulin single dose of 3.2 mg/kg i.v., on day 27
  minimum T/C: 4.2%
Human NSCLC PDX LXFA-737; mouse, in vivo, iv, 3.2 mg/kg
  tolerability / bodyweight: slight and transient bodyweight loss
MSLN-negative cell lines; A431 cells (MSLN MFI 5.6)
  % Max Killing: 93.04%
MSLN-negative cell lines; BxPC3 cells (MSLN MFI 15.59)
  % Max Killing: 97.28%
MSLN-negative cell lines; A-431, A431 cells (MSLN MFI 5.6)
  IC50: 0.18 nM
MSLN-negative cell lines; BXPC-3, BxPC3 cells (MSLN MFI 15.59)
  IC50: 0.13 nM
MSLN-negative cell lines; SK-OV-3, SKOV3 cells (MSLN MFI 20)
  IC50: 0.14 nM
MSLN-negative cell lines; SKOV3 cells (MSLN MFI 20)
  % Max Killing: 72.82%
Human NSCLC PDX LC-F-25; [3]
  tolerability: well tolerated
  tumor growth inhibition: did not induce statistically significant tumor growth inhibition
Human NSCLC PDX LC-F-25; eribulin single dose of 3.2 mg/kg (mouse MTD) i.v., from 3 to 10 days after administration
  tolerability / bodyweight: slight and transient bodyweight loss
Human NSCLC PDX LC-F-25; [2]
  partial tumor regressions: 6 out of 8
  tumor growth inhibition: statistically significant tumor growth inhibition
[1]; A-431, 120 h, Table 18, 5 days, read-out: Cell-Based Cytotoxicity Assay, EC50 (nM) A3
  EC50: 1.03 nM
[1]; A-431, Table 19, payloads, read-out: Cell-Based Cytotoxicity Assay EC50 (nM) A3
  EC50: 1.03 nM
[1]; A-431, read-out: Cell based Cytotoxicity assay, EC50 (nM) A3-6 hr, treated with ADC for 6 hours then washed off
  EC50: 4.08 nM
[1]; A-431, read-out: Cell based Cytotoxicity assay, EC50 (nM) A3-48 hr, treated for 48 hours
  EC50: 1.09 nM

From patent US12564641B2 (EISAI R&D MANAGEMENT CO., LTD., priority 2019, dated 2026)
